Counter-ions that a name gives are not always drawn.
What was measured:
cGMP = cGMP content in rat plasma (125I-cGMP RIA); format: in vivo, rats; details: 1.5 hours after administration, P < 0.001 vs control (2.59 ± 0.48)
Description: According to the aim of the experiment, IRA was performed to estimate cGMP content in plasma and cavernous boby of 50 male rats which were administrated by 2 dosages of […] product mainly consisting of bombyx moriL in our ladoratory. Change caused by […] product mainly consisting of bombyx moriL at 1.5 hours after administration was wholly observed. I. Rats: 50 healthy rats were randomly divided into 5 groups, every group is 10 rats 1. Product Mainly Consisting of Bombyx moriL Group: there were two dosage group 200 mg/kg, 400 mg/kg. 2. Viagra Group: two group, 6 mg/kg, 12 mg/kg. 3. Control Group: NS, 0.4 ML/rat. Medicine Dispensing: Viagra and Product Mainly Consisting of Bombyx moriL was dissolved by certain mount of NS. Administration Method: All Group was e.g. for One Time. Anticoagulant 50 u l EDTA was added into blood test tube.lml blood was taken in rat's veniplex orbita posterior. Test tubes was stood in ice-water mixture and were centrifugated 200 rpm for 10 minutes. […] Our laboratory used 125I-cGMP-RIA kit by Isotope Laboratory, detecting Method was double antiboby radioimmune method. The experiment sensitivity is 0.008 pmol/ml, most combination rate of detection is 82.7%,non […] combination rate is 5.0%.

normal males [1] = test: Blood pressure of normal males; format: in vivo; details: for Systolic Pressure, change 1 h after administration, X ± SD: P < 0.01
From the text: (§1) Subjects: 46 normal males, age 23-29, provided.
(§2) Methods: Double-blind, auto-control and mutual control design. The influence of the two medicines on arterial blood flow rate of cavernosum was contrasted, Based on ages, the objects were randonmly divided into 4 groups, and there were 11-12 people in one group. Before administration, arterial blood flow of corpus cavernosum penis was estimated respectively by Doppler color ultrasound instrument (Acuson, American, 128×p/10 c),and blood pressure was also measured. Then 2 groups were respectively given high dosage Medicine, that is, 8 capsules product mainly consisting of bombyx moriL and 8 capsules of viagra, and the dose-effect relationship was observed. Blood pressure and cavernous arterial blood flow of every group were estimated respectively at I and 2 hours after administration, and the time-effect relationship of product mainly consisting of bombyx moriL and viagra was observed. Whether the alternation before and after administration and the difference between groups were significant was convinced here.

normal males [2] = test: Arterial blood flow rate of corpus cavernosum penis of normal males (Doppler color ultrasound); format: in vivo; details: for MAX blood flow rate, change 1 h after administration, X ± SD: P < 0.001; for increasement of MAX (cavernous arterial maximal blood flow rate): 1 hour after administration vs before
From the text: AIM: The physiological mechanism of penile erection expresses that NO is excreted in the cavernosum during sexual extraction, whose direct function is to activate GC, which catalyzes GPT to cGMP, so the smooth muscle of cavernosum is relax, and the inflowed blood volume is increased, then penis is erected. In this experiment, Doppler color-ultrasound instrument was used to observe the influence of product mainly consisting of bombyx moriL and viagra on the arterial blood flow rate of corpus cavernosum penis of normal males, to estimate the alternation of inflowed blood volume of cavernosum.
Tested Medicie: No.981005, light-blue capsule, 200 mg/capsule.
Sildenafilcitrate, viagra: light-blue rhombic table, 100 mg/tablet. The tablet was triturated to fine powder, and amylum was added. After adequate mixture, the powder was filled into 200 mg capsule. (The same specification as product mainly consisting of bombyx moriL).There was 50 mg sildenafilcitrate in every 8 capsules.
as §1, §2

[3] = Viagra 25 mg, n=11, before administration 81.8 ± 6.4
[4] = Viagra 25 mg, n=11, before administration 120.5 ± 10.6
[5] = Viagra 50 mg, n=12, before administration 78.6 ± 10.7
[6] = Viagra 50 mg, n=12, before administration 117.7 ± 9.8
[7] = Viagra 25 mg, n=11, before administration 1.09 ± 0.30
[8] = Viagra 25 mg, n=11, before administration 3.24 ± 1.02
[9] = Viagra 50 mg, n=12, before administration 1.25 ± 0.62
[10] = Viagra 50 mg, n=12, before administration 3.37 ± 0.79

CCCc1nn(C)c2c(=O)[nH]c(-c3cc(S(=O)(=O)N4CCN(C)CC4)ccc3OCC)nc12 [Viagra, Sildenafil citrate]
cGMP content in plasma, X ± SD (cGMP; Viagra 6 mg/kg): 4.53 ± 0.67 pmol/mL | cGMP content in plasma, X ± SD (cGMP; Viagra 12 mg/kg): 4.42 ± 0.97 pmol/mL | rate of hypotensive function (normal males [1]; "High dosage" as printed, remarkable only at 1 hour after administration): 8.3% | Diastolic Pressure, change 1 h after administration, X ± SD (normal males [1]; [3]): −2.7 ± 4.7 mmHg | Diastolic Pressure, change 2 h after administration, X ± SD (normal males [1]; [3]): −1.8 ± 4.6 mmHg | Systolic Pressure, change 2 h after administration, X ± SD (normal males [1]; [4]): −3.5 ± 6.2 mmHg | Systolic Pressure, change 1 h after administration, X ± SD (normal males [1]; [4]): −10.0 ± 6.3 mmHg | Diastolic Pressure, change 1 h after administration, X ± SD (normal males [1]; [5]): −3.4 ± 7.2 mmHg | Diastolic Pressure, change 2 h after administration, X ± SD (normal males [1]; [5]): −2.0 ± 6.4 mmHg | Systolic Pressure, change 2 h after administration, X ± SD (normal males [1]; [6]): −2.7 ± 5.6 mmHg | Systolic Pressure, change 1 h after administration, X ± SD (normal males [1]; [6]): −7.3 ± 6.1 mmHg | decreasing rate of systolic pressure (sp) (normal males [1]; high dosage, 1 h after administration, p<0.01): 6.2% | MIN blood flow rate, change 1 h after administration, X ± SD (normal males [2]; [7]): +0.27 ± 1.01 cm/s | MIN blood flow rate, change 2 h after administration, X ± SD (normal males [2]; [7]): +0.36 ± 0.81 cm/s | TAMX blood flow rate, change 2 h after administration, X ± SD (normal males [2]; Viagra 25 mg, n=11, before administration 2.64 ± 1.12): 0.18 ± 1.17 cm/s | TAMX blood flow rate, change 1 h after administration, X ± SD (normal males [2]; Viagra 25 mg, n=11, before administration 2.64 ± 1.12, P < 0.05): +1.36 ± 1.43 cm/s | PI (pulsation index), change 1 h after administration, X ± SD (normal males [2]; [8]): −0.19 ± 1.16 | PI (pulsation index), change 2 h after administration, X ± SD (normal males [2]; [8]): +0.10 ± 0.85 | MAX blood flow rate, change 1 h after administration, X ± SD (normal males [2]; Viagra 25 mg, n=11, before administration 9.55 ± 2.58): +4.36 ± 2.98 cm/s | MIN blood flow rate, change 1 h after administration, X ± SD (normal males [2]; [9]): +0.17 ± 0.72 cm/s | MIN blood flow rate, change 2 h after administration, X ± SD (normal males [2]; [9]): +0.17 ± 0.91 cm/s | TAMX blood flow rate, change 2 h after administration, X ± SD (normal males [2]; Viagra 50 mg, n=12, before administration 2.67 ± 0.78): 0.50 ± 0.80 cm/s | TAMX blood flow rate, change 1 h after administration, X ± SD (normal males [2]; Viagra 50 mg, n=12, before administration 2.67 ± 0.78, P < 0.01): +1.43 ± 1.27 cm/s | PI (pulsation index), change 1 h after administration, X ± SD (normal males [2]; [10]): +0.24 ± 0.84 | PI (pulsation index), change 2 h after administration, X ± SD (normal males [2]; [10]): −0.33 ± 0.72 | MAX blood flow rate, change 1 h after administration, X ± SD (normal males [2]; Viagra 50 mg, n=12, before administration 9.58 ± 1.08): +5.67 ± 4.31 cm/s | MAX blood flow rate, change 2 h after administration, X ± SD (normal males [2]; Viagra 50 mg, n=12, before administration 9.58 ± 1.08, P < 0.05): +1.75 ± 2.63 cm/s | increasement of MAX (cavernous arterial maximal blood flow rate) (normal males [2]; high dosage groups): 59.2% | increasing rate of TAMX (cavernous average blood flow rate) (normal males [2]; low and high dosage groups, 1 hour after administration, P<0.01): 51.5-53.6% | increasement of MAX (cavernous arterial maximal blood flow rate) (normal males [2]; low dosage groups): 46.6%

— patent US20050106258A1, “Pharmacology and manufacturing method of Bombyx moriL related bioproduct” (priority 2003, published 2005)
